From US20090304744A1, “METHODS OF ENHANCING IMMUNE RESPONSE IN THE INTRADERMAL COMPARTMENT AND COMPOUNDS USEFUL THEREOF” (priority 2003, published 2009)
Where two headings read alike, the source gives them in different places.

How the values were obtained:
swine skin = conditions: for tolerated amphotericin per dose / tolerated total amphotericin per dose: Draize score 1 hour post administration; for Erythema Draize scores (tolerability): Tween 80 5%, Deoxycholate 0.1%, D-sorbitol 5%, Lutrol 15%, without antigen, 200 ul per injection, 31 gauge 1.5 mm, 1 h and 24 h readings
[1] = tested on: influenza antigen (Influenza APR834); type: in vivo, Balb/c mice; conditions: for Trend in immune response as indicated by ELISA signal (1:123 serum screening dilution): mice
guinea pig skin = assay: Guinea pig erythema Draize scoring after ID delivery of excipients; type: in vivo, Hartley guinea pigs; conditions: Tween 80 5%, Deoxycholate 0.1%, D-sorbitol 5%, Lutrol 15%; without antigen, 50 ul per injection, 34 gauge 1.0 mm; immediate, 1 h and 24 h readings
From the text: The methods of the invention provide fundamental principles and guidelines whereby optimum parameters may be determined for delivering immunogenic compositions to the dermal compartment (including epidermal and intradermal compartments) wherein the excipients have optimum adjuvant properties and the formulations of the invention have enhanced efficacy in comparison to when the same formulation is delivered using conventional modes of delivery, including intramuscular and subcutaneous delivery. The invention provides methods wherein the formulations of the invention have been screened to have optimum concentration ranges for delivery to the optimum depth of the intradermal compartment such that they have adjuvant properties, resulting in one or more of the following properties: minimal to no skin irritation as determined and assessed using conventional modes of analysis of skin reactions using visual methods such as Draize scoring (For a typical draize scoring analysis see table below); minimal to no hemolysis as determined using standard methods known in the art, and enhanced immune response as measured by enhanced seroconversion and/or enhanced antibody titers.
Erythema Draize scores for various excipients were determined using procedures described in Section 5.4, above. In one study, Tween™ 80 (5%), Deoxycholate (0.1%), D-sorbitol (5%) or Lutrol™ (15%) was administered (50 μl per injection) without the antigen to Hartley guinea pigs using 34 gauge, 1.0 mm needles. […] Deeper administrations will be necessary for deoycholate to be used reliably at this concentration. From left to right, the reading immediately after administration, the one-hour reading and the 24-hour reading.

[2] = tested on: trivalent test antigen (New Calcdonia, Panama and B-Hong Kong); set-up: species or system Hartley Guinea Pigs; conditions: guinea pig, in vivo
[3] = Yorkshire swine, 1.5 mm depth, listed as Amp-B

C[C@@H]1[C@H](O)[C@@H](C)/C=C/C=C/C=C/C=C/C=C/C=C/C=C/[C@H](O[C@@H]2O[C@H](C)[C@@H](O)[C@H](N)[C@@H]2O)C[C@@H]2O[C@](O)(C[C@@H](O)C[C@@H](O)[C@H](O)CC[C@@H](O)C[C@@H](O)CC(=O)O[C@H]1C)C[C@H](O)[C@H]2C(=O)O [Amphotericin B, reference compound]
tolerated amphotericin per dose (swine skin; Yorkshire swine, 1.5 mm depth): up to 600 ng/100 ul | tolerated total amphotericin per dose (swine skin; Yorkshire swine, 1.5 mm depth): ≤ 1200 ng/200 ul | tolerated amphotericin per dose (swine skin; [3]): 600 ng/100 ul | tolerated total amphotericin per dose (swine skin; [3]): 1200 ng/200 ul | tolerability by Draize score analysis (swine skin; alone and as a mixture with FLUZONE vaccine, 1.5 mm depth, Yorkshire swine): well tolerated | Trend in immune response as indicated by ELISA signal (1:123 serum screening dilution) ([1]; excipient 20 ng/ml with FLUZONE, ID): 0.975 | Trend in immune response as indicated by ELISA signal (1:123 serum screening dilution) ([1]; excipient 60 ng/ml with FLUZONE, ID): 1.575 | Trend in immune response as indicated by ELISA signal (1:123 serum screening dilution) ([1]; excipient 180 ng/ml with FLUZONE, ID): 1.018

OC[C@@H](O)[C@@H](O)[C@H](O)[C@@H](O)CO [D-sorbitol]
erythema (swine skin; 10% W/V, 1-2 mm depth, 20-24 hours post administration, Yorkshire swine): mild erythema | tolerability (swine skin; 10%, delivered to 1-2 mm depth, Yorkshire swine): well tolerated | Erythema Draize scores (tolerability) (swine skin): reasonably well-tolerated | serum titer enhancement vs equal amount of Fluzone without sorbitol ([1]; Fluzone supplemented with sorbitol, ID, six point ELISA): 3 × | Trend in immune response as indicated by ELISA signal (1:123 serum screening dilution) ([1]; excipient 2% w/v with FLUZONE, ID): 1.062 | Trend in immune response as indicated by ELISA signal (1:123 serum screening dilution) ([1]; excipient 10% w/v with FLUZONE, ID): 1.102 | Trend in immune response as indicated by ELISA signal (1:123 serum screening dilution) ([1]; excipient 58% w/v with FLUZONE, ID): 1.58 | Erythema Draize scores (tolerability) (guinea pig skin): reasonably well-tolerated

C[C@H](CCC(=O)[O-])[C@H]1CC[C@H]2[C@@H]3CC[C@@H]4C[C@H](O)CC[C@]4(C)[C@H]3C[C@H](O)[C@]12C.[Na+] [Deoxycholate, sodium deoxycholate]
Erythema Draize scores (tolerability) (swine skin): just above the acceptable draize score | skin compatibility (swine skin; deoxycholate 0.05 and 0.1% +/- trivalent vaccine, 1.5 mm depth, Yorkshire swine): performed well | skin compatibility (swine skin; deoxycholate 0.5% W/V and higher, 1.5 mm depth): could not be tolerated | hemagglutin specific titer vs FLUZONE alone ID and FLUZONE alone IM [2]: outperformed | animals seroconverted 21 days after immunization ([1]; DOC-supplemented (0.1% sodium deoxycholate) FLUZONE, ID, Balb/c mice): 5 of 5 | median titer ([1]; ID formulation containing 0.1% sodium deoxycholate vs IM and ID without, Balb/c mice): best median titer | Erythema Draize scores (tolerability) (guinea pig skin): just above the acceptable draize score

CCO [Ethanol]
Trend in immune response as indicated by ELISA signal (1:123 serum screening dilution) ([1]; excipient 0.05% v/v with FLUZONE, ID): 0.901 | Trend in immune response as indicated by ELISA signal (1:123 serum screening dilution) ([1]; excipient 0.15% v/v with FLUZONE, ID): 2.742 | Trend in immune response as indicated by ELISA signal (1:123 serum screening dilution) ([1]; excipient 0.45% v/v with FLUZONE, ID): 1.530

O=S([O-])O.[Na+] [Sodium Bisulfite]
Trend in immune response as indicated by ELISA signal (1:123 serum screening dilution) ([1]; excipient 0.3% w/v with FLUZONE, ID): 0.808 | Trend in immune response as indicated by ELISA signal (1:123 serum screening dilution) ([1]; excipient 0.9% w/v with FLUZONE, ID): 1.833 | Trend in immune response as indicated by ELISA signal (1:123 serum screening dilution) ([1]; excipient 2.7% w/v with FLUZONE, ID): 2.048

NC(N)=O [Urea]
Trend in immune response as indicated by ELISA signal (1:123 serum screening dilution) ([1]; excipient 1% w/v with FLUZONE, ID): 0.979 | Trend in immune response as indicated by ELISA signal (1:123 serum screening dilution) ([1]; excipient 5% w/v with FLUZONE, ID): 1.585 | Trend in immune response as indicated by ELISA signal (1:123 serum screening dilution) ([1]; excipient 20% w/v with FLUZONE, ID): 1.555

Triton X-100
Trend in immune response as indicated by ELISA signal (1:123 serum screening dilution) ([1]; excipient 0.0001% w/v with FLUZONE, ID): 1.321 | Trend in immune response as indicated by ELISA signal (1:123 serum screening dilution) ([1]; excipient 0.0009% w/v with FLUZONE, ID): 1.214

oxtoxynol 9 [Triton N-101]
Trend in immune response as indicated by ELISA signal (1:123 serum screening dilution) ([1]; excipient 0.13% w/v with FLUZONE, ID): 0.805 | Trend in immune response as indicated by ELISA signal (1:123 serum screening dilution) ([1]; excipient 1.3% w/v with FLUZONE, ID): 2.035
